Experimental data from the CheMixHub ionic liquid set.
± gives the uncertainty stated by the source.

Experiment: xn = mol fraction of the nth substance listed
Conditions: 100 kPa, x2 = 0

Row | SMILES | viscosity (293.15 K) [mPa·s] | viscosity (303.15 K) [mPa·s] | viscosity (313.15 K) [mPa·s] | viscosity (323.15 K) [mPa·s]
1 | CCCCCCCO + CCCC[n+]1ccn(C)c1.O=[N+]([O-])[O-] | 7.03 ± 0.56 | 5.03 ± 0.4 | 3.71 ± 0.3 | 2.79 ± 0.22
2 | CCOS(=O)(=O)[O-].CC[NH+]=C(N(C)C)N(C)C + CCCO | 670 |  |  | 91 ± 19
